Experimental data reported in patent US11254663B2 (BRISTOL-MYERS SQUIBB COMPANY, priority 2019, dated 2022).
pEC50: −log10 of the molar value.

The compounds below were run against FXR (Homo sapiens (Human), UniProt Q96RI1) (assay: transient human FXR/Gal4-luciferase reporter assay). Conditions: not given.
Assay type: cell-based
Protocol: A Gal4-hFXR fusion construct reporter system was used as the primary assay to characterize compound activity. A construct including 5 copies of the Gal4 promoter response element upstream of a firefly luciferase reporter cDNA was stably expressed in HEK293 cells. This reporter cell line was maintained in Dulbecco's Modified Eagle's medium (DMEM; Gibco) supplemented with 1% penicillin-streptomycin (P/S) solution, 500 μg/mL Zeocin and 10% charcoal/dextran-treated fetal bovine serum (cs-FBS) at 37° C. in a humidified 5% CO2 atmosphere. Another plasmid was constructed in which the human cytomegalovirus promoter in the pcDNA3.1 vector directs the expression of the cDNA encoding a fusion protein comprised of the DNA binding domain from the Gal4 transcription factor fused to the ligand binding domain from human FXR.
The day prior to transfection, the reporter cells in culture are detached from the plate with trypsin and plated into a T75 flask at a sufficient density to achieve approximately 90% confluence the next morning. The transfection reagents are prepared by separately diluting 25 μg of the pcDNA3.1-Gal4-FXR plasmid into 1.87 mL of Opti-MEM (Thermo-Fisher), and 40 μL of Lipofectamine 2000 (Thermo-Fisher) into 1.87 mL of Opti-MEM, and then adding the diluted DNA solution into the diluted Lipofectamine 2000 solution and incubating at room temperature for 15-20 minutes. The mixture is further diluted with 10 mL of a solution comprised of DMEM, 10% cs-FBS, and 1% P/S immediately prior to transferring to the cells. The maintenance culture media is aspirated from the cells and the final transfection mixture is added before the cells are incubated overnight at 37° C. in a humidified 5% CO2 atmosphere. This protocol can be scaled up, and the transiently transfected cells can be cryopreserved in an assay-ready format.
For compound testing, 100 nL of the compounds (serial dilutions in DMSO) are dispensed with an Echo acoustic dispenser (Labcyte) into the wells of a Corning/Costar clear bottom 384-well white plate. The transfected cells are harvested, counted, and diluted such that 10-25,000 cells in 25 μL are plated into each well of the 384-well compound assay plate. The compound-treated cells are incubated overnight at 37° C. in a humidified 5% CO2 atmosphere. The next morning 25 μL of Steady-Glo (Promega) are added to each well of the plate, the mixture is incubated for 15 min. with shaking, and luminescence is measured on an Envision (Perkin Elmer) plate reader.

Sequence of FXR (Q96RI1 262-486): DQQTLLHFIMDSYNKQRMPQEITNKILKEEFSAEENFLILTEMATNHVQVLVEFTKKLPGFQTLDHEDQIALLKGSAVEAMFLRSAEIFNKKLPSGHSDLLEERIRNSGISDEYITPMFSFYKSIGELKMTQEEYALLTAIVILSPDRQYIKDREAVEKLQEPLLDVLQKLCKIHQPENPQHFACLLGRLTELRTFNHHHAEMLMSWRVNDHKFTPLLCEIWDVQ

Structure (SMILES)	pEC50
CCOc1ncc(-c2cccc(N(CC34CCC(c5nc(C(C)(C)C)no5)(CC3)CC4)C(=O)C3CC(O)(C(F)(F)F)C3)c2)cn1 [Example 507, (1S,3S)—N-((4-(3-(tert-butyl)-1,2,4-oxadiazol-5-yl)bicyclo[2.2.2]octan-1-yl)methyl)-N-(3-(2-ethoxypyrimidin-5-yl)phenyl)-3-hydroxy-3-(trifluoromethyl)cyclobutane-1-carboxamide]	6.73
CC(C)(C)c1nc(C23CCC(CN(C(=O)C4CC(O)(C(F)(F)F)C4)c4cccc(-c5ccc(OC(F)F)cc5)c4)(CC2)CC3)no1 [Example 516, (1S,3S)—N-((4-(5-(tert-butyl)-1,2,4-oxadiazol-3-yl)bicyclo[2.2.2]octan-1-yl)methyl)-N-(4′-(difluoromethoxy)-[1,1′-biphenyl]-3-yl)-3-hydroxy-3-(trifluoromethyl)cyclobutane-1-carboxamide]	7.03
CC(F)(F)c1nc(C23CCC(CN(C(=O)C45CC(F)(C4)C5)c4cccc(-c5cnc6nc(C7CC7)sc6c5)c4)(CC2)CC3)no1 [Example 530, N-(3-(2-cyclopropylthiazolo[4,5-b]pyridin-6-yl)phenyl)-N-((4-(5-(1,1-difluoroethyl)-1,2,4-oxadiazol-3-yl)bicyclo[2.2.2]octan-1-yl)methyl)-3-fluorobicyclo[1.1.1]pentane-1-carboxamide]	6.84
CCOc1cnc(-c2cccc(N(CC34CCC(c5ccc(C(F)(F)F)cn5)(CC3)CC4)C(=O)C34CC(F)(C3)C4)c2)nc1 [Example 498, N-(3-(5-ethoxypyrimidin-2-yl)phenyl)-3-fluoro-N-((4-(5-(trifluoromethyl)pyridin-2-yl)bicyclo[2.2.2]octan-1-yl)methyl)bicyclo[1.1.1]pentane-1-carboxamide]	6.28

Same assay, conditions: Gal4-hFXR fusion construct, HEK293 reporter cells; response relative to 8 μM GW-4064

Structure (SMILES)	pEC50
Cc1nc2ccc(-c3cccc(N(CC45CCC(c6nc(C7CC7)no6)(CC4)OC5)C(=O)C45CC(F)(C4)C5)c3)cc2s1 [Example 564, N-((1-(3-cyclopropyl-1,2,4-oxadiazol-5-yl)-2-oxabicyclo[2.2.2]octan-4-yl)methyl)-3-fluoro-N-(3-(2-methylbenzo[d]thiazol-6-yl)phenyl)bicyclo[1.1.1]pentane-1-carboxamide]	6.68
O=C(N(CC12CCC(c3nc(C4CC4)no3)(CC1)CC2)c1cccc(-c2ncc(OC(F)F)cn2)c1)C12CC(F)(C1)C2 [Example 335, N-((4-(3-cyclopropyl-1,2,4-oxadiazol-5-yl)bicyclo[2.2.2]octan-1-yl)methyl)-N-(3-(5-(difluoromethoxy)pyrimidin-2-yl)phenyl)-3-fluorobicyclo[1.1.1]pentane-1-carboxamide]	7.59
Cc1nc2ccc(-c3cccc(N(CC45CCC(c6nc(C7CC7)no6)(CC4)CC5)C(=O)C45CC(F)(C4)C5)c3)cc2o1 [Example 275, N-((4-(3-cyclopropyl-1,2,4-oxadiazol-5-yl)bicyclo[2.2.2]octan-1-yl)methyl)-3-fluoro-N-(3-(2-methylbenzo[d]oxazol-6-yl)phenyl)bicyclo[1.1.1]pentane-1-carboxamide]	7.23
CC(C)c1noc(C23CCC(CN(C(=O)C45CC(F)(C4)C5)c4cccc(-c5ccc(NS(C)(=O)=O)cc5)c4)(CC2)CC3)n1 [Example 376, 3-fluoro-N-((4-(3-isopropyl-1,2,4-oxadiazol-5-yl)bicyclo[2.2.2]octan-1-yl)methyl)-N-(4′-(methylsulfonamido)-[1,1′-biphenyl]-3-yl)bicyclo[1.1.1]pentane-1-carboxamide]	7.49
Cc1cc(-c2cccc(N(CC34CCC(c5nc(C6CC6)no5)(CC3)CC4)C(=O)C34CC(F)(C3)C4)c2)cn2ncnc12 [Example 266, N-((4-(3-cyclopropyl-1,2,4-oxadiazol-5-yl)bicyclo[2.2.2]octan-1-yl)methyl)-3-fluoro-N-(3-(8-methyl-[1,2,4]triazolo[1,5-a]pyridin-6-yl)phenyl)bicyclo[1.1.1]pentane-1-carboxamide]	6.16
CC(C)(OC(=O)N(CC12CCC(c3nc(C4CC4)no3)(CC1)CC2)c1nccc(C23CCC(C#N)(CC2)CC3)n1)C(F)(F)F [Example 665, 1,1,1-trifluoro-2-methylpropan-2-yl (4-(4-cyanobicyclo[2.2.2]octan-1-yl)pyrimidin-2-yl)((4-(3-cyclopropyl-1,2,4-oxadiazol-5-yl)bicyclo[2.2.2]octan-1-yl)methyl)carbamate]	5.70
CC(C)(C)c1nc(C23CCC(CN(C(=O)C45CC(F)(C4)C5)c4cccc(-c5cnc6nc(C7CC7)sc6c5)c4)(CC2)CC3)no1 [Example 458, N-((4-(5-(tert-butyl)-1,2,4-oxadiazol-3-yl)bicyclo[2.2.2]octan-1-yl)methyl)-N-(3-(2-cyclopropylthiazolo[4,5-b]pyridin-6-yl)phenyl)-3-fluorobicyclo[1.1.1]pentane-1-carboxamide]	6.60
CC(C)(O)c1ccc(-c2nccc(N(CC34CCC(c5noc(C(C)(C)F)n5)(CC3)CC4)C(=O)OC(C)(C)C(F)(F)F)n2)cc1 [Example 635, 1,1,1-trifluoro-2-methylpropan-2-yl ((4-(5-(2-fluoropropan-2-yl)-1,2,4-oxadiazol-3-yl)bicyclo[2.2.2]octan-1-yl)methyl)(2-(4-(2-hydroxypropan-2-yl)phenyl)pyrimidin-4-yl) carbamate]	5.89
CC(C)(C#N)OC(=O)N(CC12CCC(c3noc(C(C)(C)F)n3)(CC1)CC2)c1cccc(-c2ccc(C(C)(C)O)cc2)c1 [Example 598, 2-cyanopropan-2-yl ((4-(5-(2-fluoropropan-2-yl)-1,2,4-oxadiazol-3-yl)bicyclo[2.2.2]octan-1-yl)methyl)(4′-(2-hydroxypropan-2-yl)-[1,1′-biphenyl]-3-yl) carbamate]	7.54
CC(C)Oc1ccc(-c2ccnc(N(CC34CCC(c5noc(C(C)(F)F)n5)(CC3)CC4)C(=O)OC(C)(C)C(F)(F)F)c2)cc1 [Example 610, 1,1,1-trifluoro-2-methylpropan-2-yl ((4-(5-(1,1-difluoroethyl)-1,2,4-oxadiazol-3-yl)bicyclo[2.2.2]octan-1-yl)methyl)(4-(4-isopropoxyphenyl)pyridin-2-yl)carbamate]	7.33
Cn1nc(C23CCC(CN(C(=O)C45CC(F)(C4)C5)c4cccc(-c5ccc(NS(C)(=O)=O)cc5)c4)(CC2)CC3)cc1C1CC1 [Example 406, N-((4-(5-cyclopropyl-1-methyl-1H-pyrazol-3-yl)bicyclo[2.2.2]octan-1-yl)methyl)-3-fluoro-N-(4′-(methylsulfonamido)-[1,1′-biphenyl]-3-yl)bicyclo[1.1.1]pentane-1-carboxamide]	6.69
CC1(c2nc(C34CCC(CN(C(=O)C56CC(F)(C5)C6)c5cccc(-c6ccc(OC(F)F)cc6)c5)(CC3)CC4)no2)CC1 [Example 405, N-(4′-(difluoromethoxy)-[1,1′-biphenyl]-3-yl)-3-fluoro-N-((4-(5-(1-methylcyclopropyl)-1,2,4-oxadiazol-3-yl)bicyclo[2.2.2]octan-1-yl)methyl)bicyclo[1.1.1]pentane-1-carboxamide]	7.28
N#Cc1cnc2ccc(-c3cccc(N(CC45CCC(c6nc(C7CC7)no6)(CC4)CC5)C(=O)C45CC(F)(C4)C5)c3)nn12 [Example 306, N-(3-(3-cyanoimidazo[1,2-b]pyridazin-6-yl)phenyl)-N-((4-(3-cyclopropyl-1,2,4-oxadiazol-5-yl)bicyclo[2.2.2]octan-1-yl)methyl)-3-fluorobicyclo[1.1.1]pentane-1-carboxamide]	6.41
COc1cc(-c2cccc(N(CC34CCC(c5nc(C6CC6)no5)(CC3)OC4)C(=O)C34CC(F)(C3)C4)c2)ccn1 [Example 339, N-((1-(3-cyclopropyl-1,2,4-oxadiazol-5-yl)-2-oxabicyclo[2.2.2]octan-4-yl)methyl)-3-fluoro-N-(3-(2-methoxypyridin-4-yl)phenyl)bicyclo[1.1.1]pentane-1-carboxamide]	6.42
Cc1nc2ccc(-c3cccc(N(CC45CCC(c6cc(C7CC7)n(C)n6)(CC4)CC5)C(=O)C45CC(F)(C4)C5)c3)cc2s1 [Example 409, N-((4-(5-cyclopropyl-1-methyl-1H-pyrazol-3-yl)bicyclo[2.2.2]octan-1-yl)methyl)-3-fluoro-N-(3-(2-methylbenzo[d]thiazol-6-yl)phenyl)bicyclo[1.1.1]pentane-1-carboxamide]	7.14
CS(=O)(=O)Nc1ccc(-c2cccc(N(CC34CCC(c5nnc(C6CC6)o5)(CC3)CC4)C(=O)C34CC(F)(C3)C4)c2)cc1 [Example 344, N-((4-(5-cyclopropyl-1,3,4-oxadiazol-2-yl)bicyclo[2.2.2]octan-1-yl)methyl)-3-fluoro-N-(4′-(methylsulfonamido)-[1,1′-biphenyl]-3-yl)bicyclo[1.1.1]pentane-1-carboxamide]	6.53
